Test systems include Pseudomonas aeruginosa; Candida albicans; Bacillus cereus; Escherichia coli AS1.349; Lactococcus lactis; Shigella dysenteriae; Bacillus pumilus; Candida albicans C627; Staphylococcus aureus; Bacillus subtilis 168; Escherichia coli B; Candida krusei CCM 8271; Bacillus cereus AS1.126.
What all share (experiment): ≥ marks a high value that may be exact or a test limit, other limits are often not marked, values filed in µg/mL are converted to µM
The subject of experiment [1] is Staphylococcus aureus AS1.72.
For experiment [2], the system named is Acinetobacter calcoaceticus.
The test system of experiment [3] is Escherichia coli ATCC 25922.
Experiment [4] deals with Candida albicans ATCC 2002.
Experiment [5] has as its system Staphylococcus aureus ATCC 2592.
Experiment [6] has as its system Staphylococcus aureus ATCC 29213.
The test system of experiment [7] is Pseudomonas aeruginosa CMCCB 10104.
Experiment [8] concerns Salmonella enterica subsp. enterica serovar Enteritidis.
Experiment [9] concerns Staphylococcus aureus ATCC 25923.
Experiment [10] concerns Staphylococcus aureus C623.
Experiment [11] has as its system Pseudomonas aeruginosa H103.
Experiment [12] relates to Escherichia coli ESBL 63103.
Experiment [13] concerns Pseudomonas aeruginosa 213.
Experiment [14] deals with Enterococcus faecium mic80.
The subject of experiment [15] is Pseudomonas aeruginosa LES400.
The test system of experiment [16] is Staphylococcus aureus PCM 2054.
The test system of experiment [17] is Staphylococcus epidermidis PCM 521.
Experiment [18] deals with Candida albicans F7-39/IDE99.
The subject of experiment [19] is Staphylococcus epidermidis PCM 2118.
Experiment [20] relates to Staphylococcus aureus PMC 1650.
Experiment [21] relates to Candida parapsilosis CCM 8260.
Experiment [22] deals with Candida glabrata CCM 8270.
Experiment [23] deals with Escherichia coli PCM 2057.
Experiment [24] relates to Lactococcus lactis AS1.1690.
The subject of experiment [25] is Pseudomonas aeruginosa CGMCC 1.860.
In experiment [26] the test system is Enterococcus faecalis CGMCC 1.595.
Experiment [27] has as its system Enterococcus faecium CGMCC 1.2334.

Consider 6 compounds from DBAASP.

Each structure is given as a SMILES string. In brackets after ≈: the same amount, converted by molar mass. Several values for one entry are separate records, joined by “and”; a condition that tells them apart may be missing. Equal values may be shown once.

With `CC(C)C[C@H](NC(=O)[C@H](CC(C)C)NC(=O)CNC(=O)[C@H](Cc1ccccc1)NC(=O)[C@H](CCCN=C(N)N)NC(=O)[C@H](CC(C)C)NC(=O)[C@H](CCCCN)NC(=O)[C@H](CCCCN)NC(=O)[C@H](CC(C)C)NC(=O)[C@@H]1CCCN1C(=O)[C@H](CC(C)C)NC(=O)[C@@H](N)Cc1ccccc1)C(N)=O` [FLPLKKLRFGLL], the MIC in experiment [1] was determined as 3.13 µM (≈ 4.52 µg/mL); in the experiment with Pseudomonas aeruginosa it was 12.5 µM (≈ 18 µg/mL); in the experiment on Candida albicans, 6.25 µM (≈ 9.02 µg/mL); against Bacillus cereus, 3.13 µM (≈ 4.52 µg/mL); with Escherichia coli AS1.349, 12.5 µM (≈ 18 µg/mL); against Lactococcus lactis, 3.13 µM (≈ 4.52 µg/mL).
Turning to `CC[C@H](C)[C@H](NC(=O)CN)C(=O)N[C@@H](Cc1ccccc1)C(=O)N[C@@H](CO)C(=O)N[C@@H](CC(C)C)C(=O)N[C@H](C(=O)N[C@@H](CCCCN)C(=O)N[C@H](C(=O)N[C@@H](C)C(=O)N[C@@H](C)C(=O)N[C@@H](CCCCN)C(=O)N[C@@H](Cc1ccccc1)C(=O)N[C@H](C(=O)NCC(=O)N[C@@H](CCCCN)C(=O)N[C@@H](CC(N)=O)C(=O)N[C@@H](CC(C)C)C(=O)N[C@@H](CC(C)C)C(=O)N[C@@H](CCCCN)C(=O)N[C@@H](CCC(N)=O)C(=O)N[C@@H](C)C(=O)NCC(=O)N[C@@H](CCCCN)C(=O)N[C@@H](C)C(=O)NCC(=O)N[C@H](C(=O)N[C@@H](CCC(=O)O)C(=O)N[C@@H](Cc1cnc[nH]1)C(=O)N[C@@H](CC(C)C)C(=O)N[C@@H](C)C(=O)N[C@H]1CSSC[C@@H](C(=O)O)NC(=O)[C@H](CCC(N)=O)NC(=O)[C@H](CC(N)=O)NC(=O)[C@H](CC(N)=O)NC(=O)[C@H](C)NC(=O)[C@H](CCCCN)NC1=O)C(C)C)C(C)C)[C@@H](C)O)[C@@H](C)CC` [GIFSLIKTAAKFVGKNLLKQAGKAGVEHLACKANNQC], the MIC in the experiment on Pseudomonas aeruginosa is 12.9 µM (≈ 50 µg/mL); in the experiment on Shigella dysenteriae it was 1.94 µM (≈ 7.5 µg/mL); in experiment [2] it was 3.23 µM (≈ 12.5 µg/mL); against Bacillus pumilus, 0.646 µM (≈ 2.5 µg/mL); in experiment [3], 3.23 µM (≈ 12.5 µg/mL); against Bacillus cereus, 1.94 µM (≈ 7.5 µg/mL). The minimal inhibitory concentration (MIC) in experiment [4] amounted to 0.646 µM (≈ 2.5 µg/mL); in experiment [5] it was 0.323 µM (≈ 1.25 µg/mL).
Take `CC[C@H](C)[C@H](NC(=O)[C@H](CCCCN)NC(=O)[C@H](CCCCN)NC(=O)CNC(=O)[C@@H](NC(=O)CNC(=O)[C@H](CC(C)C)NC(=O)[C@@H](NC(=O)CNC(=O)[C@H](CO)NC(=O)[C@H](CC(C)C)NC(=O)[C@H](CC(C)C)NC(=O)CN)C(C)C)C(C)C)C(=O)N[C@H](C(=O)N[C@H]1CSSC[C@@H](C(=O)O)NC(=O)[C@H](CC(C)C)NC(=O)CNC(=O)[C@H](CO)NC(=O)[C@H](CC(C)C)NC(=O)CNC1=O)C(C)C` [GLLSGVLGVGKKIVCGLSGLC]: the MIC in experiment [3] was 2.63 µM and 5.73 µM; in [6] it was 11.5 µM (≈ 22.6 µg/mL); in experiment [7] it was 5.27 µM (≈ 10.4 µg/mL); in experiment [4], 2.63 µM (≈ 5.19 µg/mL); in [8], no less than 64.9 µM; in experiment [9], 5.27 µM (≈ 10.4 µg/mL).
In the case of `CC[C@H](C)[C@H](NC(=O)[C@H](CCCCN)NC(=O)[C@H](Cc1c[nH]c2ccccc12)NC(=O)[C@@H](NC(=O)[C@@H](N)CCCN=C(N)N)[C@@H](C)CC)C(=O)N[C@@H](Cc1c[nH]c2ccccc12)C(=O)N[C@@H](Cc1c[nH]c2ccccc12)C(=O)N[C@@H](CCCCN)C(=O)N[C@@H](CCCN=C(N)N)C(=O)O` [RIWKIWWKR], the MIC in experiment [10] was no less than 46.7 µM; in [11], no less than 46.7 µM; in experiment [12] it was no less than 46.7 µM; in experiment [13], no less than 93.3 µM; in experiment [14] it was 23.3 µM (≈ 32 µg/mL); against Candida albicans C627, 5.83 µM (≈ 8 µg/mL). Also, the results for the MIC in experiment [9] and in [15] were 93.3 µM (≈ 128 µg/mL) and no less than 93.3 µM, respectively.
For the compound `CC[C@H](C)[C@H](NC(=O)[C@H](CCCCN)NC(=O)CNC(=O)[C@H](CC(C)C)NC(=O)[C@@H](NC(=O)[C@H](CCCCN)NC(=O)[C@H](CCCCN)NC(=O)[C@H](Cc1c[nH]c2ccccc12)NC(=O)[C@H](CC(N)=O)NC(=O)[C@@H](N)C(C)C)C(C)C)C(=O)N[C@H](C(=O)N[C@@H](CCCCN)C(=O)N[C@H](C(=O)N[C@@H](C)C(=O)N[C@@H](CCCCN)C(N)=O)C(C)C)[C@@H](C)CC` [VNWKKVLGKIIKVAK], the MIC amounted to 29 µM (≈ 50 µg/mL) in experiment [16]; 14.3 µM (≈ 24.6 µg/mL) against Staphylococcus aureus; 15.8 µM (≈ 27.2 µg/mL) in the experiment on Pseudomonas aeruginosa; 7.25 µM (≈ 12.5 µg/mL) in experiment [17]; 9.1 µM (≈ 15.7 µg/mL) in [18]; 0.8 µM (≈ 1.38 µg/mL) against Bacillus subtilis 168. Moreover, the minimal inhibitory concentration (MIC) in experiment [19] worked out at 3.62 µM (≈ 6.25 µg/mL); in the experiment with Escherichia coli B, 1.7 µM (≈ 2.93 µg/mL); in [20], 14.5 µM (≈ 25 µg/mL); in [21] it was 29 µM (≈ 50 µg/mL); with Candida krusei CCM 8271, 29 µM (≈ 50 µg/mL); in experiment [22], 29 µM (≈ 50 µg/mL). For the same compound, the MIC in [23] is 7.25 µM (≈ 12.5 µg/mL).
Regarding `CC(C)[C@H](N)C(=O)N[C@@H](Cc1c[nH]c2ccccc12)C(=O)N[C@@H](CCCN=C(N)N)C(=O)N[C@@H](CCCCN)C(=O)N[C@@H](Cc1c[nH]c2ccccc12)C(=O)N[C@@H](CCCN=C(N)N)C(=O)N[C@@H](CCCN=C(N)N)C(=O)N[C@@H](Cc1ccccc1)C(=O)N[C@@H](Cc1c[nH]c2ccccc12)C(=O)N[C@@H](CCCCN)C(=O)N[C@@H](CCCN=C(N)N)C(=O)O` [VWRKWRRFWKR], the MIC came out at 6.25 µM (≈ 10.7 µg/mL) in experiment [24]; 6.25 µM (≈ 10.7 µg/mL) in experiment [1]; 1.56 µM (≈ 2.66 µg/mL) in experiment [25]; 3.13 µM (≈ 5.33 µg/mL) in the experiment on Bacillus cereus AS1.126; 3.13 µM (≈ 5.33 µg/mL) with Escherichia coli AS1.349; 6.25 µM (≈ 10.7 µg/mL) in experiment [26]. Moreover, in experiment [27], the minimum inhibitory concentration (MIC) stood at 6.25 µM (≈ 10.7 µg/mL).
